{
  "source": "PubChem BioAssay (NCI)",
  "assay_in_all_cases": "DTP human tumour cell line panel, 48 h",
  "key": {"UO-31 renal": {"test_system": "UO-31 renal"}, "HS 578T breast": {"test_system": "HS 578T breast"}, "HCC-2998 colon": {"test_system": "HCC-2998 colon"}, "SW-620 colon": {"test_system": "SW-620 colon"}, "786-0 renal": {"test_system": "786-0 renal"}, "HOP-62 NSCLC": {"test_system": "HOP-62 NSCLC"}, "OVCAR-3 ovarian": {"test_system": "OVCAR-3 ovarian"}, "T-47D breast": {"test_system": "T-47D breast"}, "PC-3 prostate": {"test_system": "PC-3 prostate"}, "SF-539 CNS": {"test_system": "SF-539 CNS"}, "HCT-116 colon": {"test_system": "HCT-116 colon"}, "HT29 colon": {"test_system": "HT29 colon"}, "UACC-257 melanoma": {"test_system": "UACC-257 melanoma"}},
  "note": "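All cell lines were grown in 96-well plates and treated with compound for 48 hours. At the TGI there is no net growth.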",
  "data": [
    {"smiles": "COC(=O)C1=COC2OC3CC1C2C(C)O3", "note": "(stereo not drawn)", "values": [
      {"measurement": "TGI", "setting": "UO-31 renal", "value": "> 100", "unit": "µM"},
      {"measurement": "TGI", "setting": "HS 578T breast", "value": "> 100", "unit": "µM"},
      {"measurement": "TGI", "setting": "HCC-2998 colon", "value": "> 100", "unit": "µM"},
      {"measurement": "TGI", "setting": "SW-620 colon", "value": "> 100", "unit": "µM"},
      {"measurement": "TGI", "setting": "786-0 renal", "value": "> 100", "unit": "µM"},
      {"measurement": "TGI", "setting": "HOP-62 NSCLC", "value": "> 100", "unit": "µM"},
      {"measurement": "TGI", "setting": "OVCAR-3 ovarian", "value": "> 100", "unit": "µM"},
      {"measurement": "TGI", "setting": "T-47D breast", "value": "> 100", "unit": "µM"},
      {"measurement": "TGI", "setting": "PC-3 prostate", "value": "> 100", "unit": "µM"},
      {"measurement": "TGI", "setting": "SF-539 CNS", "value": "> 100", "unit": "µM"},
      {"measurement": "TGI", "setting": "HCT-116 colon", "value": "> 100", "unit": "µM"},
      {"measurement": "TGI", "setting": "HT29 colon", "value": "> 100", "unit": "µM"},
      {"measurement": "TGI", "setting": "UACC-257 melanoma", "value": "> 100", "unit": "µM"}
    ]},
    {"smiles": "CCOC(=O)C1=NNC(C(=O)c2ccccc2)C1c1ccccc1", "note": "(stereo not drawn)", "values": [
      {"measurement": "TGI", "setting": "UO-31 renal", "value": 3.71, "unit": "µM"},
      {"measurement": "TGI", "setting": "HS 578T breast", "value": 20.5, "unit": "µM"},
      {"measurement": "TGI", "setting": "HCC-2998 colon", "value": 3.92, "unit": "µM"},
      {"measurement": "TGI", "setting": "SW-620 colon", "value": 3.48, "unit": "µM"},
      {"measurement": "TGI", "setting": "786-0 renal", "value": 6.3, "unit": "µM"},
      {"measurement": "TGI", "setting": "HOP-62 NSCLC", "value": 26, "unit": "µM"},
      {"measurement": "TGI", "setting": "OVCAR-3 ovarian", "value": 11, "unit": "µM"},
      {"measurement": "TGI", "setting": "T-47D breast", "value": 29.3, "unit": "µM"},
      {"measurement": "TGI", "setting": "PC-3 prostate", "value": 22.5, "unit": "µM"},
      {"measurement": "TGI", "setting": "SF-539 CNS", "value": 4.76, "unit": "µM"},
      {"measurement": "TGI", "setting": "HCT-116 colon", "value": 7, "unit": "µM"},
      {"measurement": "TGI", "setting": "HT29 colon", "value": 5.3, "unit": "µM"},
      {"measurement": "TGI", "setting": "UACC-257 melanoma", "value": 6.74, "unit": "µM"}
    ]},
    {"smiles": "CCOC(=O)c1nc2cc(F)cc(F)c2[nH]c1=O", "values": [
      {"measurement": "TGI", "setting": "UO-31 renal", "value": "> 100", "unit": "µM"},
      {"measurement": "TGI", "setting": "HS 578T breast", "value": "> 100", "unit": "µM"},
      {"measurement": "TGI", "setting": "HCC-2998 colon", "value": "> 100", "unit": "µM"},
      {"measurement": "TGI", "setting": "SW-620 colon", "value": "> 100", "unit": "µM"},
      {"measurement": "TGI", "setting": "786-0 renal", "value": "> 100", "unit": "µM"},
      {"measurement": "TGI", "setting": "HOP-62 NSCLC", "value": "> 100", "unit": "µM"},
      {"measurement": "TGI", "setting": "OVCAR-3 ovarian", "value": "> 100", "unit": "µM"},
      {"measurement": "TGI", "setting": "T-47D breast", "value": "> 100", "unit": "µM"},
      {"measurement": "TGI", "setting": "PC-3 prostate", "value": "> 100", "unit": "µM"},
      {"measurement": "TGI", "setting": "SF-539 CNS", "value": "> 100", "unit": "µM"},
      {"measurement": "TGI", "setting": "HCT-116 colon", "value": "> 100", "unit": "µM"},
      {"measurement": "TGI", "setting": "HT29 colon", "value": "> 100", "unit": "µM"},
      {"measurement": "TGI", "setting": "UACC-257 melanoma", "value": "> 100", "unit": "µM"}
    ]},
    {"smiles": "COC(=O)c1cc2c(cc1C(=O)OC)[C@@]1(C)CCCC(C)(C)C1CC2", "note": "(stereo partly drawn)", "values": [
      {"measurement": "TGI", "setting": "UO-31 renal", "value": 35, "unit": "µM"},
      {"measurement": "TGI", "setting": "HS 578T breast", "value": 44.9, "unit": "µM"},
      {"measurement": "TGI", "setting": "HCC-2998 colon", "value": 34.4, "unit": "µM"},
      {"measurement": "TGI", "setting": "SW-620 colon", "value": 42.2, "unit": "µM"},
      {"measurement": "TGI", "setting": "786-0 renal", "value": 36.7, "unit": "µM"},
      {"measurement": "TGI", "setting": "HOP-62 NSCLC", "value": 61.6, "unit": "µM"},
      {"measurement": "TGI", "setting": "OVCAR-3 ovarian", "value": 25, "unit": "µM"},
      {"measurement": "TGI", "setting": "T-47D breast", "value": 9.58, "unit": "µM"},
      {"measurement": "TGI", "setting": "PC-3 prostate", "value": 51.1, "unit": "µM"},
      {"measurement": "TGI", "setting": "SF-539 CNS", "value": 95.7, "unit": "µM"},
      {"measurement": "TGI", "setting": "HCT-116 colon", "value": 45.8, "unit": "µM"},
      {"measurement": "TGI", "setting": "HT29 colon", "value": 58.2, "unit": "µM"},
      {"measurement": "TGI", "setting": "UACC-257 melanoma", "value": 62.8, "unit": "µM"}
    ]},
    {"smiles": "O=C1NC(N2CCCCC2)=N/C1=C\\c1ccco1", "values": [
      {"measurement": "TGI", "setting": "UO-31 renal", "value": "> 100", "unit": "µM"},
      {"measurement": "TGI", "setting": "HS 578T breast", "value": "> 100", "unit": "µM"},
      {"measurement": "TGI", "setting": "HCC-2998 colon", "value": "> 100", "unit": "µM"},
      {"measurement": "TGI", "setting": "SW-620 colon", "value": "> 100", "unit": "µM"},
      {"measurement": "TGI", "setting": "786-0 renal", "value": "> 100", "unit": "µM"},
      {"measurement": "TGI", "setting": "HOP-62 NSCLC", "value": "> 100", "unit": "µM"},
      {"measurement": "TGI", "setting": "OVCAR-3 ovarian", "value": "> 100", "unit": "µM"},
      {"measurement": "TGI", "setting": "T-47D breast", "value": "> 100", "unit": "µM"},
      {"measurement": "TGI", "setting": "PC-3 prostate", "value": "> 100", "unit": "µM"},
      {"measurement": "TGI", "setting": "SF-539 CNS", "value": "> 100", "unit": "µM"},
      {"measurement": "TGI", "setting": "HCT-116 colon", "value": "> 100", "unit": "µM"},
      {"measurement": "TGI", "setting": "HT29 colon", "value": "> 100", "unit": "µM"},
      {"measurement": "TGI", "setting": "UACC-257 melanoma", "value": "> 100", "unit": "µM"}
    ]},
    {"smiles": "CC(C)CC1NC(=O)CCC(NC(=O)C(Cc2ccc(O)cc2)NC(=O)OCc2ccccc2)C(=O)NC(Cc2ccccc2)C(=O)NC(Cc2ccccc2)NC1=O", "note": "(stereo not drawn)", "values": [
      {"measurement": "TGI", "setting": "UO-31 renal", "value": "> 100", "unit": "µM"},
      {"measurement": "TGI", "setting": "HS 578T breast", "value": "> 100", "unit": "µM"},
      {"measurement": "TGI", "setting": "HCC-2998 colon", "value": "> 100", "unit": "µM"},
      {"measurement": "TGI", "setting": "SW-620 colon", "value": "> 100", "unit": "µM"},
      {"measurement": "TGI", "setting": "786-0 renal", "value": "> 100", "unit": "µM"},
      {"measurement": "TGI", "setting": "HOP-62 NSCLC", "value": "> 100", "unit": "µM"},
      {"measurement": "TGI", "setting": "OVCAR-3 ovarian", "value": "> 100", "unit": "µM"},
      {"measurement": "TGI", "setting": "T-47D breast", "value": "> 100", "unit": "µM"},
      {"measurement": "TGI", "setting": "PC-3 prostate", "value": "> 100", "unit": "µM"},
      {"measurement": "TGI", "setting": "SF-539 CNS", "value": "> 100", "unit": "µM"},
      {"measurement": "TGI", "setting": "HCT-116 colon", "value": "> 100", "unit": "µM"},
      {"measurement": "TGI", "setting": "HT29 colon", "value": "> 100", "unit": "µM"},
      {"measurement": "TGI", "setting": "UACC-257 melanoma", "value": "> 100", "unit": "µM"}
    ]}
  ]
}
